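Test compounds were applied to cells in 96-well plates for 48 hours at 5 doses. The concentration for 50% growth inhibition is given as GI50. TGI: total growth inhibition.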
What was measured:
Test in all cases: NCI-60 cell line screen, 48 h
[1] = system: 786-0 renal
[2] = system: A498 renal
[3] = system: A549 NSCLC
[4] = system: ACHN renal
[5] = system: BT-549 breast
[6] = system: CAKI-1 renal
[7] = system: CCRF-CEM leukemia
[8] = system: COLO 205 colon
[9] = system: DU-145 prostate
[10] = system: EKVX NSCLC
[11] = system: HCC-2998 colon
[12] = system: HCT-116 colon
[13] = system: HCT-15 colon
[14] = system: HL-60(TB) leukemia
[15] = system: HOP-62 NSCLC
[16] = system: HOP-92 NSCLC
[17] = system: HS 578T breast
[18] = system: HT29 colon
[19] = system: IGROV1 ovarian
[20] = system: K-562 leukemia
[21] = system: KM12 colon
[22] = system: LOX IMVI melanoma
[23] = system: M14 melanoma
[24] = system: MALME-3M melanoma
[25] = system: MCF7 breast
[26] = system: MDA-MB-231 breast
[27] = system: MDA-MB-435
[28] = system: MDA-MB-468 breast
[29] = system: MOLT-4 leukemia
[30] = system: NCI-H226 lung
[31] = system: NCI-H23 lung
[32] = system: NCI-H460 lung
[33] = system: NCI-H522 lung
[34] = system: NCI/ADR-RES ovarian
[35] = system: OVCAR-3 ovarian
[36] = system: OVCAR-4 ovarian
[37] = system: OVCAR-5 ovarian
[38] = system: OVCAR-8 ovarian
[39] = system: PC-3 prostate
[40] = system: RPMI-8226 leukemia
[41] = system: RXF 393 renal
[42] = system: SF-268 CNS
[43] = system: SF-295 CNS
[44] = system: SF-539 CNS
[45] = system: SK-MEL-2 melanoma
[46] = system: SK-MEL-28 melanoma
[47] = system: SK-MEL-5 melanoma
[48] = system: SK-OV-3 ovarian
[49] = system: SN12C renal
[50] = system: SNB-19 CNS
[51] = system: SNB-75 CNS
[52] = system: SR leukemia
[53] = system: SW-620 colon
[54] = system: T-47D breast
[55] = system: TK-10 renal
[56] = system: U251 CNS
[57] = system: UACC-257 melanoma
[58] = system: UACC-62 melanoma
[59] = system: UO-31 renal

SMILES: O=C(NO)c1ccc(CNc2nc(-c3ccccc3)c3ccccc3n2)cc1
- GI50 [1]: 2.75 µM
- TGI [1]: 11.8 µM
- GI50 [2]: 1.68 µM
- TGI [2]: 5.45 µM
- GI50 [3]: 3.23 µM
- TGI [3]: > 13.4 µM
- GI50 [4]: 2.05 µM
- TGI [4]: 5.55 µM
- GI50 [5]: 3.99 µM
- TGI [5]: 15.8 µM
- GI50 [6]: 2.5 µM
- TGI [6]: 8.52 µM
- GI50 [7]: 2.73 µM
- TGI [7]: > 28 µM
- GI50 [8]: 1.69 µM
- TGI [8]: 3.81 µM
- GI50 [9]: 2.78 µM
- TGI [9]: > 28 µM
- GI50 [10]: 3.59 µM
- TGI [10]: > 17 µM
- GI50 [11]: 1.82 µM
- TGI [11]: 5.63 µM
- GI50 [12]: 2.04 µM
- TGI [12]: 8.01 µM
- GI50 [13]: 2.85 µM
- TGI [13]: 9.1 µM
- GI50 [14]: 3.59 µM
- TGI [14]: > 28 µM
- GI50 [15]: 2.88 µM
- TGI [15]: 12.2 µM
- GI50 [16]: 1.95 µM
- TGI [16]: 6.6 µM
- GI50 [17]: 2.47 µM
- TGI [17]: > 28 µM
- GI50 [18]: 2.46 µM
- TGI [18]: > 23.3 µM
- GI50 [19]: 2.29 µM
- TGI [19]: 6.96 µM
- GI50 [20]: 3.05 µM
- TGI [20]: > 28 µM
- GI50 [21]: 3.69 µM
- TGI [21]: > 12.5 µM
- GI50 [22]: 2.08 µM
- TGI [22]: 5.35 µM
- GI50 [23]: 3.2 µM
- TGI [23]: > 13.5 µM
- GI50 [24]: 1.36 µM
- TGI [24]: 4.72 µM
- GI50 [25]: 3.22 µM
- TGI [25]: > 28 µM
- GI50 [26]: 2.44 µM
- TGI [26]: 8.22 µM
- GI50 [27]: 2.4 µM
- TGI [27]: > 9.06 µM
- GI50 [28]: 1.49 µM
- TGI [28]: 5.41 µM
- GI50 [29]: 3.01 µM
- TGI [29]: > 28 µM
- GI50 [30]: 2.67 µM
- TGI [30]: 14.6 µM
- GI50 [31]: 2.24 µM
- TGI [31]: 7.72 µM
- GI50 [32]: 3.04 µM
- TGI [32]: > 17.1 µM
- GI50 [33]: 1.85 µM
- TGI [33]: 8.25 µM
- GI50 [34]: 0.159 µM
- TGI [34]: 0.954 µM
- GI50 [35]: 2.68 µM
- TGI [35]: 8.7 µM
- GI50 [36]: 5.4 µM
- TGI [36]: > 20.6 µM
- GI50 [37]: 1.55 µM
- TGI [37]: 4.87 µM
- GI50 [38]: 2.65 µM
- TGI [38]: > 12.4 µM
- GI50 [39]: 4.84 µM
- TGI [39]: 27.3 µM
- GI50 [40]: 2.36 µM
- TGI [40]: > 28 µM
- GI50 [41]: 1.23 µM
- TGI [41]: 3.58 µM
- GI50 [42]: 3.57 µM
- TGI [42]: 15.2 µM
- GI50 [43]: 1.84 µM
- TGI [43]: 4.69 µM
- GI50 [44]: 2.77 µM
- TGI [44]: > 11.3 µM
- GI50 [45]: 1.42 µM
- TGI [45]: 7.54 µM
- GI50 [46]: 2.42 µM
- TGI [46]: 8.17 µM
- GI50 [47]: 1.62 µM
- TGI [47]: 3.32 µM
- GI50 [48]: 2.15 µM
- TGI [48]: 6.25 µM
- GI50 [49]: 3.09 µM
- TGI [49]: 12 µM
- GI50 [50]: 2.83 µM
- TGI [50]: 9.91 µM
- GI50 [51]: 2.36 µM
- TGI [51]: > 12 µM
- GI50 [52]: > 18.1 µM
- TGI [52]: > 28 µM
- GI50 [53]: 2.09 µM
- TGI [53]: 5.91 µM
- GI50 [54]: 2.28 µM
- TGI [54]: 21.7 µM
- GI50 [55]: 2.12 µM
- TGI [55]: > 19.8 µM
- GI50 [56]: 2.37 µM
- TGI [56]: 8.78 µM
- GI50 [57]: 2.02 µM
- TGI [57]: > 16.5 µM
- GI50 [58]: 1.34 µM
- TGI [58]: 3.16 µM
- GI50 [59]: 1.99 µM
- TGI [59]: 6.71 µM

— PubChem BioAssay (NCI)
